From ChEMBL document CHEMBL4813981, “Synthesis and in vitro antibacterial activity of new aminothiazole-oximepiperidone cephalosporins” (2021)
Values after ≈ are worked out from the molar mass of the structure shown.

What was measured:
Type in all cases: functional
Escherichia coli [1] = assay: Antibacterial activity against ESBLs negative Carbapenem-sensitive Escherichia coli 17-16 assessed as reduction in bacterial growth
Klebsiella pneumoniae [2] = assay: Antibacterial activity against Carbapenem- resistant Klebsiella pneumoniae KR 15-6 assessed as reduction in bacterial growth
Escherichia coli [3] = assay: Antibacterial activity against ESBLs positive Carbapenem-sensitive Escherichia coli 17-6 assessed as reduction in bacterial growth
Klebsiella pneumoniae [4] = assay: Antibacterial activity against Carbapenem- resistant Klebsiella pneumoniae KR 15-8 assessed as reduction in bacterial growth
Pseudomonas aeruginosa [5] = assay: Antibacterial activity against Carbapenem- sensitive Pseudomonas aeruginosa 17-21 assessed as reduction in bacterial growth
Klebsiella pneumoniae [6] = assay: Antibacterial activity against Carbapenem- sensitive Klebsiella pneumoniae 17-11 overexpressing extended spectrum beta-lactamases assessed as reduction in bacterial growth
Klebsiella pneumoniae [7] = assay: Antibacterial activity against Carbapenem- sensitive Klebsiella pneumoniae 17-14 overexpressing extended spectrum beta-lactamases assessed as reduction in bacterial growth
Pseudomonas aeruginosa [8] = assay: Antibacterial activity against Carbapenem- resistant Pseudomonas aeruginosa 17-5 assessed as reduction in bacterial growth
Pseudomonas aeruginosa [9] = assay: Antibacterial activity against Carbapenem- sensitive Pseudomonas aeruginosa 17-26 assessed as reduction in bacterial growth
Klebsiella pneumoniae [10] = assay: Antibacterial activity against Carbapenem- sensitive Klebsiella pneumoniae 17-4 overexpressing extended spectrum beta-lactamases assessed as reduction in bacterial growth
Pseudomonas aeruginosa [11] = assay: Antibacterial activity against Carbapenem- sensitive Pseudomonas aeruginosa 17-29 assessed as reduction in bacterial growth
Escherichia coli [12] = assay: Antibacterial activity against Escherichia coli ATCC 25922 assessed as reduction in bacterial growth
Enterobacter cloacae [13] = assay: Antibacterial activity against Enterobacter cloacae 17-2 assessed as reduction in bacterial growth
Klebsiella pneumoniae [14] = assay: Antibacterial activity against ESBLs negative Carbapenem-sensitive Klebsiella pneumoniae 17-16 assessed as reduction in bacterial growth
Escherichia coli [15] = assay: Antibacterial activity against ESBLs positive Carbapenem-sensitive Escherichia coli 17-22 assessed as reduction in bacterial growth
Klebsiella pneumoniae [16] = assay: Antibacterial activity against Carbapenem- sensitive Klebsiella pneumoniae 17-12 overexpressing extended spectrum beta-lactamases assessed as reduction in bacterial growth
Enterobacter cloacae [17] = assay: Antibacterial activity against Enterobacter cloacae 17-9 assessed as reduction in bacterial growth
Klebsiella pneumoniae [18] = assay: Antibacterial activity against Carbapenem- sensitive Klebsiella pneumoniae 17-15 overexpressing extended spectrum beta-lactamases assessed as reduction in bacterial growth
Enterobacter cloacae [19] = assay: Antibacterial activity against Enterobacter cloacae 17-10 assessed as reduction in bacterial growth
Klebsiella pneumoniae [20] = assay: Antibacterial activity against Carbapenem- resistant Klebsiella pneumoniae KR 15-13 assessed as reduction in bacterial growth
Acinetobacter baumannii [21] = assay: Antibacterial activity against Carbapenem- resistant Acinetobacter baumannii 17-11 assessed as reduction in bacterial growth
Escherichia coli [22] = assay: Antibacterial activity against ESBLs negative Carbapenem-sensitive Escherichia coli 17-1 assessed as reduction in bacterial growth
Klebsiella pneumoniae [23] = assay: Antibacterial activity against Carbapenem- sensitive Klebsiella pneumoniae 17-9 overexpressing extended spectrum beta-lactamases assessed as reduction in bacterial growth
Enterobacter cloacae [24] = assay: Antibacterial activity against Enterobacter cloacae 17-3 assessed as reduction in bacterial growth
Klebsiella aerogenes [25] = assay: Antibacterial activity against Enterobacter aerogenes 17-2 assessed as reduction in bacterial growth
Enterobacter cloacae [26] = assay: Antibacterial activity against Enterobacter cloacae 17-1 assessed as reduction in bacterial growth
Klebsiella pneumoniae [27] = assay: Antibacterial activity against Carbapenem- resistant Klebsiella pneumoniae KR 15-10 assessed as reduction in bacterial growth
Klebsiella pneumoniae [28] = assay: Antibacterial activity against Carbapenem- sensitive Klebsiella pneumoniae 17-6 overexpressing extended spectrum beta-lactamases assessed as reduction in bacterial growth
Escherichia coli [29] = assay: Antibacterial activity against ESBLs positive Carbapenem-sensitive Escherichia coli 17-10 assessed as reduction in bacterial growth
Pseudomonas aeruginosa [30] = assay: Antibacterial activity against Carbapenem- resistant Pseudomonas aeruginosa 17-1 assessed as reduction in bacterial growth
Acinetobacter baumannii [31] = assay: Antibacterial activity against Carbapenem- resistant Acinetobacter baumannii 17-6 assessed as reduction in bacterial growth
Escherichia coli [32] = assay: Antibacterial activity against ESBLs positive Carbapenem-sensitive Escherichia coli 17-8 assessed as reduction in bacterial growth
Acinetobacter baumannii [33] = assay: Antibacterial activity against Carbapenem- resistant Acinetobacter baumannii 17-2 assessed as reduction in bacterial growth
Escherichia coli [34] = assay: Antibacterial activity against ESBLs positive Carbapenem-sensitive Escherichia coli 17-3 assessed as reduction in bacterial growth
Klebsiella pneumoniae [35] = assay: Antibacterial activity against ESBLs negative Carbapenem-sensitive Klebsiella pneumonia 15-2 assessed as reduction in bacterial growth
Acinetobacter baumannii [36] = assay: Antibacterial activity against Carbapenem- resistant Acinetobacter baumannii 17-3 assessed as reduction in bacterial growth
Klebsiella pneumoniae [37] = assay: Antibacterial activity against Carbapenem- resistant Klebsiella pneumoniae KR 15-9 assessed as reduction in bacterial growth
Escherichia coli [38] = assay: Antibacterial activity against ESBLs positive Carbapenem-sensitive Escherichia coli 17-14 assessed as reduction in bacterial growth
Klebsiella aerogenes [39] = assay: Antibacterial activity against Enterobacter aerogenes 15-5 assessed as reduction in bacterial growth
Escherichia coli [40] = assay: Antibacterial activity against ESBLs positive Carbapenem-sensitive Escherichia coli 17-2 assessed as reduction in bacterial growth
Klebsiella pneumoniae [41] = assay: Antibacterial activity against Carbapenem- sensitive Klebsiella pneumoniae 17-10 overexpressing extended spectrum beta-lactamases assessed as reduction in bacterial growth
Escherichia coli [42] = assay: Antibacterial activity against ESBLs positive Carbapenem-sensitive Escherichia coli 17-12 assessed as reduction in bacterial growth
Klebsiella pneumoniae [43] = assay: Antibacterial activity against Carbapenem- resistant Klebsiella pneumoniae KR 15-7 assessed as reduction in bacterial growth
Acinetobacter baumannii [44] = assay: Antibacterial activity against Carbapenem- resistant Acinetobacter baumannii 17-9 assessed as reduction in bacterial growth
Escherichia coli [45] = assay: Antibacterial activity against ESBLs negative Carbapenem-sensitive Escherichia coli 17-9 assessed as reduction in bacterial growth
Klebsiella aerogenes [46] = assay: Antibacterial activity against Enterobacter aerogenes 17-3 assessed as reduction in bacterial growth
Enterobacter cloacae [47] = assay: Antibacterial activity against Enterobacter cloacae 17-5 assessed as reduction in bacterial growth
Klebsiella aerogenes [48] = assay: Antibacterial activity against Enterobacter aerogenes 17-1 assessed as reduction in bacterial growth
Escherichia coli [49] = assay: Antibacterial activity against ESBLs positive Carbapenem-sensitive Escherichia coli 17-15 assessed as reduction in bacterial growth
Pseudomonas aeruginosa [50] = assay: Antibacterial activity against Carbapenem- sensitive Pseudomonas aeruginosa 17-7 assessed as reduction in bacterial growth
Klebsiella aerogenes [51] = assay: Antibacterial activity against Enterobacter aerogenes 15-7 assessed as reduction in bacterial growth
Klebsiella pneumoniae [52] = assay: Antibacterial activity against Carbapenem- sensitive Klebsiella pneumoniae 17-3 overexpressing extended spectrum beta-lactamases assessed as reduction in bacterial growth
Pseudomonas aeruginosa [53] = assay: Antibacterial activity against Carbapenem- resistant Pseudomonas aeruginosa 17-8 assessed as reduction in bacterial growth
Escherichia coli [54] = assay: Antibacterial activity against ESBLs positive Carbapenem-sensitive Escherichia coli 17-21 assessed as reduction in bacterial growth

C[C@@H](O)[C@H]1C(=O)N2C(C(=O)O)=C(S[C@@H]3CN[C@H](C(=O)N(C)C)C3)[C@H](C)[C@H]12 [MEROPENEM]
MIC (Escherichia coli [1]): < 0.03 µg/mL | MIC (Klebsiella pneumoniae [2]): > 64 µg/mL | MIC (Escherichia coli [3]): < 0.03 µg/mL | MIC (Klebsiella pneumoniae [4]): > 64 µg/mL | MIC (Pseudomonas aeruginosa [5]): 2 µg/mL (≈ 5.22 µM) | MIC (Klebsiella pneumoniae [6]): 0.06 µg/mL (≈ 0.156 µM) | MIC (Klebsiella pneumoniae [7]): 1 µg/mL (≈ 2.61 µM) | MIC (Pseudomonas aeruginosa [8]): 32 µg/mL (≈ 83.4 µM) | MIC (Pseudomonas aeruginosa [9]): 1 µg/mL (≈ 2.61 µM) | MIC (Klebsiella pneumoniae [10]): 0.06 µg/mL (≈ 0.156 µM) | MIC (Pseudomonas aeruginosa [11]): 1 µg/mL (≈ 2.61 µM) | MIC (Escherichia coli [12]): < 0.03 µg/mL | MIC (Enterobacter cloacae [13]): 0.125 µg/mL (≈ 0.326 µM) | MIC (Klebsiella pneumoniae [14]): < 0.03 µg/mL | MIC (Escherichia coli [15]): 0.06 µg/mL (≈ 0.156 µM) | MIC (Klebsiella pneumoniae [16]): < 0.03 µg/mL | MIC (Enterobacter cloacae [17]): < 0.03 µg/mL | MIC (Klebsiella pneumoniae [18]): < 0.03 µg/mL | MIC (Enterobacter cloacae [19]): < 0.03 µg/mL | MIC (Klebsiella pneumoniae [20]): 64 µg/mL (≈ 167 µM) | MIC (Acinetobacter baumannii [21]): 32 µg/mL (≈ 83.4 µM) | MIC (Escherichia coli [22]): < 0.03 µg/mL | MIC (Klebsiella pneumoniae [23]): 0.06 µg/mL (≈ 0.156 µM) | MIC (Enterobacter cloacae [24]): 0.06 µg/mL (≈ 0.156 µM) | MIC (Klebsiella aerogenes [25]): 0.06 µg/mL (≈ 0.156 µM) | MIC (Enterobacter cloacae [26]): < 0.03 µg/mL | MIC (Klebsiella pneumoniae [27]): > 64 µg/mL | MIC (Klebsiella pneumoniae [28]): < 0.03 µg/mL | MIC (Escherichia coli [29]): < 0.03 µg/mL | MIC (Pseudomonas aeruginosa [30]): 16 µg/mL (≈ 41.7 µM) | MIC (Acinetobacter baumannii [31]): 32 µg/mL (≈ 83.4 µM) | MIC (Escherichia coli [32]): < 0.03 µg/mL | MIC (Acinetobacter baumannii [33]): 64 µg/mL (≈ 167 µM) | MIC (Escherichia coli [34]): < 0.03 µg/mL | MIC (Klebsiella pneumoniae [35]): < 0.03 µg/mL | MIC (Acinetobacter baumannii [36]): 16 µg/mL (≈ 41.7 µM) | MIC (Klebsiella pneumoniae [37]): > 64 µg/mL | MIC (Escherichia coli [38]): < 0.03 µg/mL | MIC (Klebsiella aerogenes [39]): 0.125 µg/mL (≈ 0.326 µM) | MIC (Escherichia coli [40]): < 0.03 µg/mL | MIC (Klebsiella pneumoniae [41]): < 0.03 µg/mL | MIC (Escherichia coli [42]): < 0.03 µg/mL | MIC (Klebsiella pneumoniae [43]): > 64 µg/mL | MIC (Acinetobacter baumannii [44]): 32 µg/mL (≈ 83.4 µM) | MIC (Escherichia coli [45]): < 0.03 µg/mL | MIC (Klebsiella aerogenes [46]): < 0.03 µg/mL | MIC (Enterobacter cloacae [47]): 0.06 µg/mL (≈ 0.156 µM) | MIC (Klebsiella aerogenes [48]): 0.125 µg/mL (≈ 0.326 µM) | MIC (Escherichia coli [49]): < 0.03 µg/mL | MIC (Pseudomonas aeruginosa [50]): 0.06 µg/mL (≈ 0.156 µM) | MIC (Klebsiella aerogenes [51]): 0.125 µg/mL (≈ 0.326 µM) | MIC (Klebsiella pneumoniae [52]): < 0.03 µg/mL | MIC (Pseudomonas aeruginosa [53]): 32 µg/mL (≈ 83.4 µM) | MIC (Escherichia coli [54]): < 0.03 µg/mL
